# Biological target: LRRK2 G2019S (Homo sapiens, UniProt Q5S007, G2019S)
# Test: LRRK2 G2019S Km ATP LanthaScreen assay
# Assay type: biochemical
# Details: read-out: LRRK2 pIC50 (converted)
# Sequence of LRRK2 G2019S (Q5S007 whole entry G2019S): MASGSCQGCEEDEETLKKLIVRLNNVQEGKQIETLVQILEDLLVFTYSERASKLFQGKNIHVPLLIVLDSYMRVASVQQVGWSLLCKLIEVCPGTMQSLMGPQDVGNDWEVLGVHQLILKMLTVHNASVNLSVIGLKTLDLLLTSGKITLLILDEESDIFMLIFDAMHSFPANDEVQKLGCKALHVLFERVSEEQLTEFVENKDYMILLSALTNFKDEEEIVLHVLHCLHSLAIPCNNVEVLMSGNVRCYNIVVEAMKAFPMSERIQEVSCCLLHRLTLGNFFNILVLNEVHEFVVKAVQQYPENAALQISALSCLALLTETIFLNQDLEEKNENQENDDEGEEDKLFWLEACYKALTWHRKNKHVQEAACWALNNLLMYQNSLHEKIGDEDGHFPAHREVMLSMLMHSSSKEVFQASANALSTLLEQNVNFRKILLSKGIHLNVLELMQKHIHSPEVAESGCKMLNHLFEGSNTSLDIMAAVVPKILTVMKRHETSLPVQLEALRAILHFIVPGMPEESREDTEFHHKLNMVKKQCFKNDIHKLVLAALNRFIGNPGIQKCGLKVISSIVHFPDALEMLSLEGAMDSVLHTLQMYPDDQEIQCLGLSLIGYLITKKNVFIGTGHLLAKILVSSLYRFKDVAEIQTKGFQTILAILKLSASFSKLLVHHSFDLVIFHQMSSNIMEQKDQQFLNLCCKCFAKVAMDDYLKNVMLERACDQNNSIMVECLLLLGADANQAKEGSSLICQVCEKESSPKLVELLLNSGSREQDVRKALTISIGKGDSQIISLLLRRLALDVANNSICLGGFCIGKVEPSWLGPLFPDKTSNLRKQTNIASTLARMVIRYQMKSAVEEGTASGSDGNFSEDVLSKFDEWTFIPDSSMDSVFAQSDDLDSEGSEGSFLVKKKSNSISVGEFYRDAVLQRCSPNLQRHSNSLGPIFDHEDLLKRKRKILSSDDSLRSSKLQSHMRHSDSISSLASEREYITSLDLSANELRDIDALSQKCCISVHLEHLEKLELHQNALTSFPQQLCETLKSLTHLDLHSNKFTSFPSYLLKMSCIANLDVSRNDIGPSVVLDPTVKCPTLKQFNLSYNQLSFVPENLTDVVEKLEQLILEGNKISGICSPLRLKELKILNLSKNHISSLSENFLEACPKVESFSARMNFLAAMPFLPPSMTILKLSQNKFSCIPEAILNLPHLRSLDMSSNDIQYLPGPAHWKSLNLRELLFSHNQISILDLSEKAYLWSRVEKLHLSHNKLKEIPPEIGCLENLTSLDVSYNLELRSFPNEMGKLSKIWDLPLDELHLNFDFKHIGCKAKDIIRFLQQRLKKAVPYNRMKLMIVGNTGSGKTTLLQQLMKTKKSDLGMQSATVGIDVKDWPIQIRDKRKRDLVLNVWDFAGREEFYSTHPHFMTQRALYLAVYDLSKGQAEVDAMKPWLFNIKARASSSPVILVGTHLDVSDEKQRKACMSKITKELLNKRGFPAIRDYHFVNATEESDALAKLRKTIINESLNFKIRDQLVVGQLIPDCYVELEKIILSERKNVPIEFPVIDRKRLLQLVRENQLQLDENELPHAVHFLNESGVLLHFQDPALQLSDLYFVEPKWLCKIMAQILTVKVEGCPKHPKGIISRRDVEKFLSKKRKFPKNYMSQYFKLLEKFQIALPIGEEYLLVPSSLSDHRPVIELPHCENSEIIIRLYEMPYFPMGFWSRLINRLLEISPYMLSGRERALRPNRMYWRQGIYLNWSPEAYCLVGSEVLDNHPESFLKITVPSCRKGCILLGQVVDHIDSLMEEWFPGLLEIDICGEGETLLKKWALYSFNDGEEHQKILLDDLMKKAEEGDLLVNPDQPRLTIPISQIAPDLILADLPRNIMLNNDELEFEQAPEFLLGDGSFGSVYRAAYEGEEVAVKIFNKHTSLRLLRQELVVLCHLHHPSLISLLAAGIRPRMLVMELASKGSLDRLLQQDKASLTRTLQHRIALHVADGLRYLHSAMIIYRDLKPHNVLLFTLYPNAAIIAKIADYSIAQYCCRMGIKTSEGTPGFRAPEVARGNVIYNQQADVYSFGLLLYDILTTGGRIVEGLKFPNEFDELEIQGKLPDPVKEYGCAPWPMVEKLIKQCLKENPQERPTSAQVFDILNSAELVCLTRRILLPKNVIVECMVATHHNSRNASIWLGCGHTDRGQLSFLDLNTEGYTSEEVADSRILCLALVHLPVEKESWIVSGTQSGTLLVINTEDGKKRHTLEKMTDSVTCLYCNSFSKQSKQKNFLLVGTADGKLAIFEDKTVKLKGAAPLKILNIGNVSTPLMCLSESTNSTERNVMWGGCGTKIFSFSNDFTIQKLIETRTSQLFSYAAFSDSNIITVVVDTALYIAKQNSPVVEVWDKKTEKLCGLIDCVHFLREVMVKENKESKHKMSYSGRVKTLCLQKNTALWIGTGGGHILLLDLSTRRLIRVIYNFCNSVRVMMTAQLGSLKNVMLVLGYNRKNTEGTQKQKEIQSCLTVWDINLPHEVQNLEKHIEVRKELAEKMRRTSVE
row,IC50 [nM],Compound
1,0.501,"Cc1cc2cnc(NC(=O)C3CC3c3ccccn3)cc2cc1C1CCN(C2(C)COCC2F)CC1 (single isomer, unassigned) [Ex-13.3, (1R,2R or 1S,2S)-N-(6-(1-((3R,4R or 3S,4S)-4-fluoro-3-methyltetrahydrofuran-3-yl)piperidin-4-yl)-7-methylisoquinolin-3-yl)-2-(pyridin-2-yl)cyclopropane-1-carboxamide]"
2,1.95,"O=C(Nc1cc2cc(C3CCN(C4COC4)CC3)c(Cl)cc2cn1)C1CC12CCOCC2 (single isomer, unassigned) [Ex-9.7, N-(7-chloro-6-(1-(oxetan-3-yl)piperidin-4-yl)isoquinolin-3-yl)-6-oxaspiro[2.5]octane-1-carboxamide]"
3,0.0813,CCOC1CC2(C1)CC2C(=O)Nc1cc2cc(C3CCN(C4(C)COCC4F)CC3)c(Cl)cc2cn1 (centres unmarked) [Ex-2.82]
4,0.776,"Cn1cc(C(=O)Nc2cc3cc(C4CCN([C@]5(C)COC[C@@H]5O)CC4)c(Cl)cc3cn2)cn1 (single isomer, unassigned) [Ex-12.6, N-(7-chloro-6-(1-(4-hydroxy-3-methyltetrahydrofuran-3-yl)piperidin-4-yl)isoquinolin-3-yl)-1-methyl-1H-pyrazole-4-carboxamide]"
5,0.631,"O=C(Nc1cc2cc(C3CCN(C4COCC4O)CC3)c(Cl)cc2cn1)C1CC12CCOCC2 (single isomer, unassigned) [Ex-4.1, (R or S)-N-(7-chloro-6-(1-((3R,4R or 3R, 4R)-4-hydroxytetrahydrofuran-3-yl)piperidin-4-yl)isoquinolin-3-yl)-6-oxaspiro[2.5]octane-1-carboxamide]"
6,10.2,Cn1cc(N2CCC(C(=O)Nc3cc4cc(C5(C#N)CC56CC6)ccc4cn3)C2)cn1 (centres unmarked) [Ex-2.77]
7,7.24,"CC1(N2CCC(c3cc4cc(NC(=O)C5CC5C(F)F)ncc4cc3Cl)CC2)COCC1O (single isomer, unassigned) [Ex-10.9, N-(7-chloro-6-(1-(4-hydroxy-3-methyltetrahydrofuran-3-yl)piperidin-4-yl)isoquinolin-3-yl)-2-(difluoromethyl)cyclopropane-1-carboxamide]"
8,0.38,"CN1CCC(C(=O)Nc2cc3cc(C4CCN(C5(C)COCC5O)CC4)c(Cl)cc3cn2)CC1 (single isomer, unassigned) [Ex-1.19, N-(7-chloro-6-(1-((3R,4R or 3S,4S)-4-hydroxy-3-methyltetrahydrofuran-3-yl)piperidin-4-yl)isoquinolin-3-yl)-1-methylpiperidine-4-carboxamide]"
9,2,"Cc1cc2cnc(NC(=O)C3CC34CCOC4)cc2cc1C1CCN(C2(C)COCC2F)CC1 (single isomer, unassigned) [Ex-15.10, N-(6-(1-(4-fluoro-3-methyltetrahydrofuran-3-yl)piperidin-4-yl)-7-methylisoquinolin-3-yl)-5-oxaspiro[2.4]heptane-1-carboxamide]"
10,661,"O=C(Nc1cc2cc(C3CCC(N4CC(F)C4)CC3)c(Cl)cc2cn1)C1CC1c1ccccn1 (single isomer, unassigned) [Ex-5.2, (1R,2R or 1S,2S)-N-(7-chloro-6-((cis or trans)-4-(3-fluoroazetidin-1-yl)cyclohexyl)isoquinolin-3-yl)-2-(pyridin-2-yl)cyclopropane-1-carboxamide]"
11,1.51,"Cc1ccc(C2CC2C(=O)Nc2cc3cc(C4CCN(C5(C)COCC5O)CC4)c(Cl)cc3cn2)s1 (single isomer, unassigned) [Ex-4.58, N-(7-chloro-6-(1-(4-hydroxy-3-methyltetrahydrofuran-3-yl)piperidin-4-yl)isoquinolin-3-yl)-2-(5-methylthiophen-2-yl)cyclopropane-1-carboxamide]"
12,1.74,"CC1(N2CCC(c3cc4cc(NC(=O)C5CC5c5ccncc5)ncc4cc3Cl)CC2)COCC1O (single isomer, unassigned) [Ex-4.22, N-(7-chloro-6-(1-(4-hydroxy-3-methyltetrahydrofuran-3-yl)piperidin-4-yl)isoquinolin-3-yl)-2-(pyridin-4-yl)cyclopropane-1-carboxamide]"
13,112,"CC(C)(O)C1CC1C(=O)Nc1cc2cc(C3CCN(C4(C)COCC4F)CC3)c(Cl)cc2cn1 (single isomer, unassigned) [Ex-6.27, N-(7-chloro-6-(1-(4-fluoro-3-methyltetrahydrofuran-3-yl)piperidin-4-yl)isoquinolin-3-yl)-2-(2-hydroxypropan-2-yl)cyclopropane-1-carboxamide]"
14,42.7,"CC1(N2CCC(c3cc4cc(NC(=O)C5CC56CCOC6)ncc4cc3Cl)CC2)COCC1F (single isomer, unassigned) [Ex-6.1, (R or S)-N-(7-chloro-6-(1-((3R,4R or 3S,4S)-4-fluoro-3-methyltetrahydrofuran-3-yl)piperidin-4-yl)isoquinolin-3-yl)-5-oxaspiro [2.4] heptane-1-carboxamide]"
15,479,"CC1(C)CC(C(=O)Nc2cc3cc(C4CCC(N5CCC(F)C5)CC4)c(Cl)cc3cn2)CCO1 (single isomer, unassigned) [Ex-5.13, N-(7-chloro-6-(4-(3-fluoropyrrolidin-1-yl)cyclohexyl)isoquinolin-3-yl)-2,2-dimethyltetrahydro-2H-pyran-4-carboxamid]"
16,9.77,"N#CC1(c2ccc3cnc(NC(=O)C4CC(OC(F)F)C4)cc3c2)CC12CC2 (single isomer, unassigned) [Ex-2.5]"

row,IC50 [nM],Compound
1,3.63,"N#CC1(c2ccc3cnc(NC(=O)C4CC4)cc3c2)CC12CC2 (single isomer, unassigned) [Ex-18.2, N-(6-(1-cyanospiro[2.2]pentan-1-yl)isoquinolin-3-yl)cyclopropanecarboxamide]"
2,4270,"CC1(C)CCC(C(=O)Nc2cc3cc(C4CCC(N5CCC(F)C5)CC4)c(Cl)cc3cn2)CO1 (single isomer, unassigned) [Ex-5.24, N-(7-chloro-6-(4-(3-fluoropyrrolidin-1-yl)cyclohexyl)isoquinolin-3-yl)-6,6-dimethyltetrahydro-2H-pyran-3-carboxamide]"
3,0.102,"CC1(N2CCC(c3cc4cc(NC(=O)C5COC6(CCC6)C5)ncc4cc3Cl)CC2)COCC1O (single isomer, unassigned) [Ex-4.17, N-(7-chloro-6-(1-(4-hydroxy-3-methyltetrahydrofuran-3-yl)piperidin-4-yl)isoquinolin-3-yl)-5-oxaspiro[3.4]octane-7-carboxamide]"
4,12.9,"CC(C)(O)c1cccc(CC(=O)Nc2cc3cc(C4(C#N)CC45CC5)ccc3cn2)c1 (single isomer, unassigned) [Ex-1.45, (R or S)-N-(6-(1-cyanospiro[2.2]pentan-1-yl)isoquinolin-3-yl)-2-(3-(2-hydroxypropan-2-yl)phenyl)acetamide]"
5,2.4,"Cc1cc2cnc(NC(=O)C3CC34CCOC4)cc2cc1C1CCN(C2(C)COCC2F)CC1 (single isomer, unassigned) [Ex-15.9, N-(6-(1-(4-fluoro-3-methyltetrahydrofuran-3-yl)piperidin-4-yl)-7-methylisoquinolin-3-yl)-5-oxaspiro[2.4]heptane-1-carboxamide]"
6,11.7,"CN1CCO[C@@H](C(=O)Nc2cc3cc(C4(C#N)CC45CC5)ccc3cn2)C1 (single isomer, unassigned) [Ex-1.31, (2R)-N-(6-((R or S)-1-cyanospiro[2.2]pentan-1-yl)isoquinolin-3-yl)-4-methylmorpholine-2-carboxamide]"
7,4.07,"O=C(Nc1cc2cc(C3CCN(C4COC4)CC3F)c(Cl)cc2cn1)C1CC1 (single isomer, unassigned) [Ex-14.2, N-(7-chloro-6-((3R,4R,3S,4R,3R,4S or 3S,4S)-3-fluoro-1-(oxetan-3-yl)piperidin-4-yl)isoquinolin-3-yl)cyclopropanecarboxamide]"
8,0.55,Cn1cc(C2CC2C(=O)Nc2cc3cc(C4CCN(C5(C)COCC5O)CC4)c(Cl)cc3cn2)cn1 (centres unmarked) [Ex-2.36]
9,5.75,"CC1CC1(C#N)c1ccc2cnc(NC(=O)C3CC3)cc2c1 (single isomer, unassigned) [Ex-18.5, (R or S)-N-(6-(1-cyano-2-methylcyclopropyl)isoquinolin-3-yl)cyclopropanecarboxamide]"
10,457,Cn1ncc(C2CC2C(=O)Nc2cc3cc(C4(C#N)CC45CC5)ccc3cn2)c1C(F)(F)F (centres unmarked) [Ex-2.47]
11,61.7,"CC1C(C(=O)Nc2cc3cc(C4CCN(C5(C)COCC5O)CC4)c(Cl)cc3cn2)C12CCOCC2 (single isomer, unassigned) [Ex-10.5, N-(7-chloro-6-(1-(4-hydroxy-3-methyltetrahydrofuran-3-yl)piperidin-4-yl)isoquinolin-3-yl)-2-methyl-6-oxaspiro[2.5]octane-1-carboxamide]"
12,2.34,"CCC(=O)N1CCC(C(=O)Nc2cc3cc(C4(C#N)CC45CC5)ccc3cn2)CC1 (single isomer, unassigned) [Ex-1.32, N-(6-((R or S)-1-cyanospiro[2.2]pentan-1-yl)isoquinolin-3-yl)-1-propionylpiperidine-4-carboxamide]"
13,0.0813,"Cc1cc2cnc(NC(=O)C3CC3c3ccccn3)cc2cc1C1CCN(C2(C)COCC2O)CC1 (single isomer, unassigned) [Ex-4.78, N-(6-(1-(4-hydroxy-3-methyltetrahydrofuran-3-yl)piperidin-4-yl)-7-methylisoquinolin-3-yl)-2-(pyridin-2-yl)cyclopropane-1-carboxamide]"
14,0.589,"CC1(N2CCC(c3cc4cc(NC(=O)C5CC5)ncc4cc3Cl)C(F)C2)COC1 (centres unmarked) [Ex-14.3, N-(7-chloro-6-(3-fluoro-1-(3-methyloxetan-3-yl)piperidin-4-yl)isoquinolin-3-yl)cyclopropanecarboxamide]"
15,141,"CC1(N2CCC(c3cc4cc(NC(=O)C5CC56CCOC6)ncc4cc3Cl)CC2)COCC1F (single isomer, unassigned) [Ex-6.4, (R or S)-N-(7-chloro-6-(1-((3R,4R or 3S,4S)-4-fluoro-3-methyltetrahydrofuran-3-yl)piperidin-4-yl)isoquinolin-3-yl)-5-oxaspiro [2.4] heptane-1-carboxamide]"
16,87.1,"CC1(N2CCC(c3cc4cc(NC(=O)C5CC5c5ccccn5)ncc4cc3Cl)CC2)CCOC1 (single isomer, unassigned) [Ex-6.33, N-(7-chloro-6-(1-(3-methyltetrahydrofuran-3-yl)piperidin-4-yl)isoquinolin-3-yl)-2-(pyridin-2-yl)cyclopropane-1-carboxamide]"

# From US20240398784A1, “C-LINKED ISOQUINOLINE AMIDES AS LRRK2 INHIBITORS, PHARMACEUTICAL COMPOSITIONS, AND USES THEREOF” (Merck Sharp & Dohme LLC, priority 2021, published 2024)
